The test system of test [1] is MDA-MB-231 cells. Kind of test: Half inhibitory concentration (IC50) on BET-expressing tumor cells, CCK-8, MDA-MB-231. Format: cell-based. Conditions: Homo sapiens, 48/72 h, read-out: IC50 (nM)/MDA-MB-231 cell line. The protocol:
(§1) BET-expressing cells MV-4-11 cells (human B granulocytic leukemia cells), MDA-MB-231 cells (human breast cancer cells), MDA-MB-468 cells (human breast cancer cells), MDA-MB-453 Cells (human breast cancer cells), MM1S cells (myeloma (immunoglobulin A lambda), B lymphoblasts) and SR cells (human large cell immunoblast lymphoma) were purchased from the American Type Culture Collection (ATCC).
(§2) The cells used in this present disclosure were cultured in a 37° C. incubator containing 5% CO2. The complete cell culture medium was RPMI 1640/IMDM/DMEM medium with 10% fetal bovine serum, and the final concentrations of penicillin and streptomycin were 100 U/mL, respectively. All cells were tested negative for mycoplasma with mycoplasma detection kit before the experiment.
(§3) Determination of the Half Inhibitory Concentration (IC50) of PROTAD Compounds on Tumor Cells
(§4) MV-411 cells, MM1S cells and SR cells were seeded in 100 μL IMDM/RPMI1640/DMEM complete medium at a density of 15000/10000 cells/well; MDA-MB-231 cells, MDA-MB-468 cells, and MDA-MB453 cells were seeded in 100 μL IMDM/RPMI1640/DMEM complete medium at a density of 3000/5000 cells/well, respectively. 100 μL of the inoculated cells were treated with 0.5 μL diluted PROTAD compounds of the present disclosure to be tested at 10 successively decreasing concentrations (starting at the highest concentration of 10 μM; 5-fold serial dilutions). After the cells were treated with the tested drugs 48/72 h, the cell viability was determined according to the CCK-8 reagent manual. The negative control was DMSO, and the positive control was a commercial inhibitor. After CCK-8 treatment for 2 h, the value of O.D.450 was measured using a microplate reader.

Test [2] has as its system MDA-MB-468 cells. Kind of test: Half inhibitory concentration (IC50) on BET-expressing tumor cells, CCK-8, MDA-MB-468. To be noted: Homo sapiens, 48/72 h, read-out: IC50 (nM)/MDA-MB-468 cell line. It is filed as cell-based. The protocol: as §1, §2, §3, §4
Test [3] relates to MDA-MB-453 cells. Kind of test: Half inhibitory concentration (IC50) on BET-expressing tumor cells, CCK-8, MDA-MB-453. Format: cell-based, human. To be noted: 48/72 h, read-out: IC50 (nM)/MDA-MB-453 cell line. On the procedure: as §1, §2, §3, §4
Test [4] concerns MM1S cells. Kind of test: Half inhibitory concentration (IC50) on BET-expressing tumor cells, CCK-8, MM1S. To be noted: Homo sapiens, MM1.S, 48/72 h, read-out: IC50 (nM)/MM1S cell line. It is filed as cell-based. On the procedure: as §1, §2, §3, §4
Test [5] has as its system MV-4-11 cells. Kind of test: Half inhibitory concentration (IC50) on BET-expressing tumor cells, CCK-8, MV-4-11. Conditions: Homo sapiens, MV4-11, read-out: IC50 (nM)/MV-4-11 cell line, MV-4-11 cells, 48/72 h, CCK-8.
In test [6] the test system is SR cells. Kind of test: Half inhibitory concentration (IC50) on ALK-positive SR cell proliferation (CCK-8). Conditions: Homo sapiens; SR cells, 72 h drug treatment, CCK-8; read-out: IC50 (nM)/ SR cell line. It is filed as cell-based. In short, it runs like this: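 SR cells seeded at 10,000 cells/well in RPMI1640 and treated with PROTAD compounds at 10 concentrations (top 10 μM, 5-fold dilutions) for 72 h at 37° C, 5% CO2. Viability read by CCK-8 (2 h) at OD450; DMSO as negative control.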

The target in test [7] is T1, ALK protein (Homo sapiens, UniProt Q9UM73). Kind of test: Western-blot half degradation concentration (DC50) of ALK protein in SR cells. Format: cell-based. To be noted: 24 h drug treatment, read-out: DC50 (nM)/ SR cell line. The protocol: ALK-positive SR cells (human large cell immunoblastic lymphoma) were purchased from the American Type Culture Collection (ATCC); H3122 cells (human non-small cell lung cancer) were from the Shanghai University of Science and Technology Lin Haifan's research group.
The cells used in this present disclosure were cultured in a 37° C. incubator containing 5% CO2.
DC50 (drug concentration corresponding to protein degradation to 50%) calculation: according to the gray value of the corresponding Western blotting band after drug treatment, fitting the relationship curve between drug concentration and gray value to calculate the drug concentration range corresponding to half of the gray value.
Target sequence in this assay (Q9UM73 with tags, fused parts or gaps): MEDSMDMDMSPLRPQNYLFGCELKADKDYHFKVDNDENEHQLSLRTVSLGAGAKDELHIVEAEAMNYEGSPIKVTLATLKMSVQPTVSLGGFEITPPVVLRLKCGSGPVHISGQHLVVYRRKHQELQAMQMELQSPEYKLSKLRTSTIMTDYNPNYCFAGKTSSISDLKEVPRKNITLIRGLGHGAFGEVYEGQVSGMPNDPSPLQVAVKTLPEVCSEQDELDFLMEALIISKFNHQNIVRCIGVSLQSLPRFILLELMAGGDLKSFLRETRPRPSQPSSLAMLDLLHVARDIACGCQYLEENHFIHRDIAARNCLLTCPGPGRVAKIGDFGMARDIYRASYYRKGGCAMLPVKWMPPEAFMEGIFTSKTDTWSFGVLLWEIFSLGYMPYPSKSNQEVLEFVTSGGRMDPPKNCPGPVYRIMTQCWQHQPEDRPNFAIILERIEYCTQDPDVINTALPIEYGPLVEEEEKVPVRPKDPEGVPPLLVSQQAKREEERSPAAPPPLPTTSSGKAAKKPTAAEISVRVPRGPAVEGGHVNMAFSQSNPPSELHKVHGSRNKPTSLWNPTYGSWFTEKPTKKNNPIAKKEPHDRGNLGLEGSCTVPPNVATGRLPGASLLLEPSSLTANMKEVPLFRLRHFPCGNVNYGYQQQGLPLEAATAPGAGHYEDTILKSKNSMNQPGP

For test [8], the target named is T1, ALK protein. The experiment in a line: Western-blot half degradation concentration (DC50) of ALK protein in H3122 cells. It is filed as cell-based. To be noted: 24 h drug treatment, read-out: DC50 (nM)/ H3122 cell line.
Target sequence in this assay (Q9UM73 with tags, fused parts or gaps): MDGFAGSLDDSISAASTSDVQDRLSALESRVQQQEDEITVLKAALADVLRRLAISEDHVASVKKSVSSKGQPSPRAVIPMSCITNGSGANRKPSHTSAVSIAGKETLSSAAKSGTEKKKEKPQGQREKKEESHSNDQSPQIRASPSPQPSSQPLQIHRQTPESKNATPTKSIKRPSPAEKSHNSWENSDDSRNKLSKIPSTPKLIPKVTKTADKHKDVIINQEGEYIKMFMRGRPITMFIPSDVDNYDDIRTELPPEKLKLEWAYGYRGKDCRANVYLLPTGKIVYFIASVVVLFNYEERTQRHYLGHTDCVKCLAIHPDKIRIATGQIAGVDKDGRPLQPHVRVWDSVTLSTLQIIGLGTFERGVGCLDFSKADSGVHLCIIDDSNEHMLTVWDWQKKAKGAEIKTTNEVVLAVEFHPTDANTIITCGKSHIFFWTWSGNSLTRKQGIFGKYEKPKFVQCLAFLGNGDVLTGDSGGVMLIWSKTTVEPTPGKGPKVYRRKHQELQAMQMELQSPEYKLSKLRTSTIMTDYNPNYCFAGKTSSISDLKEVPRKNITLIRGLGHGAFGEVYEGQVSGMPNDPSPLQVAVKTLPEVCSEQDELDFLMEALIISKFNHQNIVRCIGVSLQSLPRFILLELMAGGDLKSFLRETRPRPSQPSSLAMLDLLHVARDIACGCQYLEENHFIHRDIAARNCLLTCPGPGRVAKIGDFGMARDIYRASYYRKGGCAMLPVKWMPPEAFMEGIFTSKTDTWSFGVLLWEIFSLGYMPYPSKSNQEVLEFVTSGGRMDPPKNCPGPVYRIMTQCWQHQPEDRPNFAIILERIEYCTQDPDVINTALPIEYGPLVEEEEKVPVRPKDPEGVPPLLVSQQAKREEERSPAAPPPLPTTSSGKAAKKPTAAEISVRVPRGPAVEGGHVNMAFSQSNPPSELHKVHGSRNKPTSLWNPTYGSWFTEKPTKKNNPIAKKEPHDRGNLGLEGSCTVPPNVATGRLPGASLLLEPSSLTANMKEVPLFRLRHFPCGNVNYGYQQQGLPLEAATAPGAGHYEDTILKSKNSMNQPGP
The mark [9] stands for this setting: Homo sapiens, MDA-MB-453, MDA-MB-453 cells.

Where two headings read alike, the source gives them in different places.

Consider `Cc1sc2c(c1C)C(c1ccc(Cl)cc1)=N[C@@H](CC(=O)NCCCSc1cccc3c1C(=O)N(C1CCC(=O)NC1=O)C3=O)c1nnc(C)n1-2` (stereo partly drawn) [SIAIS171013, 2-((S)-4-(4-chlorophenyl)-2,3,9-trimethyl-6H-thieno[3,2-f][1,2,4]triazolo[4,3-a][1,4]diazepin-6-yl)-N-(3-((2-(2,6-dioxopiperidin-3-yl)-1,3-dioxoisoindolin-4-yl)thio)propyl)acetamide], for which the IC50 is above 2820 nM in test [1]; above 300 nM in test [2]; 1090 nM in test [3] (setting [9]); 22.6 nM in test [4]; 8.6 ± 8.7 nM in test [5].

Take `Cc1sc2c(c1C)C(c1ccc(Cl)cc1)=N[C@@H](CC(=O)NCCCCCCCSc1cccc3c1CN(C1CCC(=O)NC1=O)C3=O)c1nnc(C)n1-2` (stereo partly drawn) [SIAIS171144, 2-((S)-4-(4-chlorophenyl)-2,3,9-trimethyl-6H-thieno[3,2-f][1,2,4]triazolo[4,3-a][1,4]diazepin-6-yl)-N-(7-((2-(2,6-dioxopiperidin-3-yl)-1-oxoisoindolin-4-yl)thio)heptyl)acetamide]: the IC50 turned out to be 55 ± 31 nM in test [1]; 9.6 ± 2.9 nM in test [2]; 52.3 nM in test [3] (setting [9]); 63.9 nM in test [3] (MDA-MB-453 cells); 0.7 nM in test [4]; 0.9 ± 0.8 nM in test [5].

In the case of `Cc1sc2c(c1C)C(c1ccc(Cl)cc1)=N[C@@H](CC(=O)NCCCCCCCCSc1cccc3c1C(=O)N(C1CCC(=O)NC1=O)C3=O)c1nnc(C)n1-2` (stereo partly drawn) [SIAIS171049, 2-((S)-4-(4-chlorophenyl)-2,3,9-trimethyl-6H-thieno[3,2-f][1,2,4]triazolo[4,3-a][1,4]diazepin-6-yl)-N-(8-((2-(2,6-dioxopiperidin-3-yl)-1,3-dioxoisoindolin-4-yl)thio)octyl)acetamide], the IC50 amounted to 645 ± 249 nM in test [1]; 1730 ± 1650 nM in test [2]; 166 nM in test [3] (setting [9]); 237 nM in test [3] (MDA-MB-453 cells); 3.06 nM in test [4]; 7.2 ± 9.2 nM in test [5].

With `COc1cc(N2CCC(N3CCN(C(=O)CCCCCSc4cccc5c4C(=O)N(C4CCC(=O)NC4=O)C5=O)CC3)CC2)ccc1Nc1ncc(Cl)c(Nc2ccccc2P(C)(C)=O)n1` (stereo not shown) [SIAIS164065, 4-((6-(4-(1-(4-((5-chloro-4-((2-(dimethylphosphoryl)phenyl)amino)pyrimidin-2-yl)amino)-3-methoxyphenyl)piperidin-4-yl)piperazin-1-yl)-6-oxohexyl)thio)-2-(2,6-dioxopiperidin-3-yl)isoindoline-1,3-dione], the IC50 in test [6] stood at 2.9 ± 2.7 nM. Moreover, the results for the DC50 in test [7] and in test [8] were 5.2 nM and 173 nM, respectively.

Take `Cc1sc2c(c1C)C(c1ccc(Cl)cc1)=N[C@@H](CC(=O)NCCCSc1cccc3c1CN(C1CCC(=O)NC1=O)C3=O)c1nnc(C)n1-2` (stereo partly drawn) [SIAIS171139, 2-((S)-4-(4-chlorophenyl)-2,3,9-trimethyl-6H-thieno[3,2-f][1,2,4]triazolo[4,3-a][1,4]diazepin-6-yl)-N-(3-((2-(2,6-dioxopiperidin-3-yl)-1-oxoisoindolin-4-yl)thio)propyl)acetamide]: the IC50 was above 10000 nM in test [1]; above 10000 nM in test [2]; 452 nM in test [3] (setting [9]); 2.03 nM in test [4]; 1.1 ± 0.6 nM in test [5].

As to `Cc1sc2c(c1C)C(c1ccc(Cl)cc1)=N[C@@H](CC(=O)NCCSc1cccc3c1C(=O)N(C1CCC(=O)NC1=O)C3=O)c1nnc(C)n1-2` (stereo partly drawn) [SIAIS171036, 2-((S)-4-(4-chlorophenyl)-2,3,9-trimethyl-6H-thieno[3,2-f][1,2,4]triazolo[4,3-a][1,4]diazepin-6-yl)-N-(2-((2-(2,6-dioxopiperidin-3-yl)-1,3-dioxoisoindolin-4-yl)thio)ethyl)acetamide], the IC50 turned out to be 242 ± 65 nM in test [1]; 100 ± 21 nM in test [2]; 163 nM in test [3] (setting [9]); 214 nM in test [3] (MDA-MB-453 cells); 8.6 nM in test [4]; 4.5 ± 3.2 nM in test [5].

Take `COc1cc(N2CCC(N3CCN(C(=O)CSc4cccc5c4C(=O)N(C4CCC(=O)NC4=O)C5=O)CC3)CC2)ccc1Nc1ncc(Cl)c(Nc2ccccc2P(C)(C)=O)n1` (stereo not shown) [SIAIS164062, 4-((2-(4-(1-(4-((5-chloro-4-((2-(dimethylphosphoryl)phenyl)amino)pyrimidin-2-yl)amino)-3-methoxyphenyl)piperidin-4-yl)piperazin-1-yl)-2-oxoethyl)thio)-2-(2,6-dioxopiperidin-3-yl)isoindoline-1,3-dione]: the IC50 in test [6] came out at 11.6 ± 6.2 nM. Also, the DC50 in test [7] turned out to be 6 nM; in test [8] it was 13 nM.

In the case of `COc1cc(N2CCC(N3CCN(C(=O)CCCSc4cccc5c4C(=O)N(C4CCC(=O)NC4=O)C5=O)CC3)CC2)ccc1Nc1ncc(Cl)c(Nc2ccccc2P(C)(C)=O)n1` (stereo not shown) [SIAIS164064, 4-((4-(4-(1-(4-((5-chloro-4-((2-(dimethylphosphoryl)phenyl)amino)pyrimidin-2-yl)amino)-3-methoxyphenyl)piperidin-4-yl)piperazin-1-yl)-4-oxobutyl)thio)-2-(2,6-dioxopiperidin-3-yl)isoindoline-1,3-dione], the IC50 in test [6] came to 4.4 ± 2.5 nM. In addition, the figures for the DC50 in test [7] and in test [8] were 1.1 nM and 49 nM, respectively.

Consider `COc1cc(N2CCC(NC(=O)CCCCCSc3cccc4c3C(=O)N(C3CCC(=O)NC3=O)C4=O)CC2)ccc1Nc1ncc(Cl)c(Nc2ccccc2P(C)(C)=O)n1` (stereo not shown) [SIAIS164141, N-(1-(4-((5-chloro-4-((2-(dimethylphosphoryl)phenyl)amino)pyrimidin-2-yl)amino)-3-methoxyphenyl)piperidin-4-yl)-6-((2-(2,6-dioxopiperidin-3-yl)-1,3-dioxoisoindolin-4-yl)thio)hexanamide], for which the IC50 in test [6] amounted to 3.2 ± 2.4 nM. In addition, the DC50 in test [7] is 1 to 50 nM; in test [8], 50 nM.

Consider `COc1cc(N2CCN(C(=O)CCCCCSc3cccc4c3C(=O)N(C3CCC(=O)NC3=O)C4=O)CC2)ccc1Nc1ncc(Cl)c(Nc2ccccc2P(C)(C)=O)n1` (stereo not shown) [SIAIS1197121, 4-((6-(4-(4-((5-chloro-4-((2-(dimethylphosphoryl)phenyl)amino)pyrimidin-2-yl)amino)-3-methoxyphenyl)piperazin-1-yl)-6-oxohexyl)thio)-2-(2,6-dioxopiperidin-3-yl)isoindoline-1,3-dione], for which the IC50 in test [6] was found to be 7.4 ± 4.8 nM. Also, the DC50 is 50 to 500 nM in test [7] and 500 nM in test [8].

As for `COc1cc(N2CCC(N3CCN(C(=O)CCCCSc4cccc5c4C(=O)N(C4CCC(=O)NC4=O)C5=O)CC3)CC2)ccc1Nc1ncc(Cl)c(Nc2ccccc2P(C)(C)=O)n1` (stereo not shown) [SIAIS164066, 4-((5-(4-(1-(4-((5-chloro-4-((2-(dimethylphosphoryl)phenyl)amino)pyrimidin-2-yl)amino)-3-methoxyphenyl)piperidin-4-yl)piperazin-1-yl)-5-oxopentyl)thio)-2-(2,6-dioxopiperidin-3-yl)isoindoline-1,3-dione], the IC50 in test [6] came to 4.2 ± 2.9 nM. The figures for the DC50 in test [7] and in test [8] were 5.6 nM and 11 nM, respectively.

For the origin of these results see US12226424B2, “Target protein degradation compounds, their anti-tumor use, their intermediates and use of intermediates” (ShanghaiTech University, priority 2018, dated 2025).
